Measured values taken from patent US20240366540A1, “MITOFUSIN INHIBITORS AND USES THEREOF” (Albert Einstein College of Medicine, priority 2021, published 2024).

Columns and labels:
A375 cells = assay: Cell viability, melanoma cells; type: cell-based; conditions: A375, 72 hr, Cell titer Glo
Experimental: (§1) Cell titer Glo was used to measure viability. Cells were treated with MFI8 for 72 hr (n=3, mean±SD).
(§2) Cell viability assay. Cells (5×10^3 cells/well) were seeded in a 96-well white plate and treated with serial dilutions of MASM7 or MFI8. Cell viability was assayed after 72 hrs by addition of CellTiter-Glo reagent according to the manufacturer's protocol (Promega). Luminescence was measured using a F200 PRO microplate reader (TECAN). Viability assays were performed in at least triplicate and the data normalized to vehicle-treated control wells. Dilutions of MASM7 or MFI8 were performed using a TECAN D300e Digital Dispenser from 10 mM stocks.

SKML-30 cells = assay: Cell viability, melanoma cells; type: cell-based; conditions: SKML-30, 72 hr, Cell titer Glo
Experimental: as §1, §2

MEFs [1] = assay: Metabolomics (TCA cycle carboxylic acids, NAD, NADH); type: cell-based, mouse; conditions: UPLC-MRM/MS
Experimental: Metabolomics. […] Cells were harvested using a cell scraper and centrifuged at 1200 rpm in 4° C. for 3 min. Each cell pellet sample was suspended into 250 to 700 μL of 80% aqueous methanol in an Eppendorf tube. The samples were vortex mixed for 15 s and sonicated in an ice-water bath for 5 min, followed by centrifugal clarification at 15,000 rpm and 5° C. in an Eppendorf […] centrifuge. The clear supernatants were collected. A standard stock solution of TCA cycle carboxylic acids, NAD and NADH was prepared in 80% methanol as S1. This standard solution S1 was serially diluted 1 to 4 (v/v) with the same solvent to make standard solutions S2 to S10. 20 μL of each standard solution and an aliquot of the clear supernatant from each cell was mixed with 20 μL of an internal standard solution containing 9 ^13C- or deuterium labeled analogues of the TCA cycle carboxylic acids (except isocitric acid), 20 μL of 200 mM 3-NPH solution and 20 μL of 150 mM of EDC solution. The mixtures were allowed to react at 30° C. for 30 min. After reaction, 120 μL of water was added to each solution. 10 μL of the resultant solutions was injected into a C18 UPLC column to quantitate the TCA cycle carboxylic acids by UPLC-MRM/MS with (-) ion detection, according to the procedure we described in a publication.

MOLM13 cells [2] = assay: Caspase 3/7 activation in MOLM13 cells with AMG-176; type: cell-based; conditions: increasing concentrations of AMG-176 and MFI8
Experimental: Caspase-3/7 activation assay. Cells (5×10^3 cells/well) were seeded in a 96-well white plate and treated with MASM7, MFI8. Caspase 3/7 activation was measured after 6 hr by addition of the Caspase-Glo 3/7 reagent according to the manufacturer's protocol (Promega). Luminescence was detected by a F200 PRO microplate reader (TECAN). Caspase assays were performed in at least triplicate and the data normalized to vehicle-treated control wells. Dilutions of MASM7 or MFI8 were performed using a TECAN D300e Digital Dispenser from 10 mM stocks.

MEFs [3] = assay: Cytochrome C release; type: cell-based, mouse; conditions: 6 hrs treatment, cytosolic and mitochondrial fractions
Experimental: Cytochrome C release. MEFs were seeded in a 10 cm^2 dish and grown at ˜70% confluence. Following 6 hrs treatment with MFI8, cells were harvested and lysed in digitonin buffer [20 mM Hepes, pH 7.2, 10 mM KCl, 5 mM MgCl2, Im MEDTA, 1 mM EGTA, 250 mM sucrose, 0.025% Digitonin (from 5% w/v stock) and complete protease inhibitors (Roche Applied Science)] on ice for 10 min. Then, supernatants were isolated by centrifugation at 15,000×g for 10 min. Mitochondrial pellets solubilized in 1% Triton X-100/PBS for 1 hr at 4° C. Solubilized Pellets were subjected to a 14,000×rpm spin for 10 min. Samples were prepared for western blot analysis and separated by 4-12% NuPage (Life Technologies).

MEFs [4] = assay: DNA damage, yH2AX immunofluorescence in MEFs; type: cell-based, mouse; conditions: 6 h
Experimental: Immunofluorescent analysis and microscopy. […] After treatments, cells were washed with PBS and fixed with 4% PFA for 15 min. […] After incubation with primary antibodies, cells were washed with PBS and incubated with the appropriate mouse secondary antibody (ThermoFisher Scientific; A-11001) in the blocking solution. After PBS washes, coverslips were dipped in water and mounted on glass slides using Vectashield containing DAPI (Vector laboratories). […] Data were analyzed with ImageJ.

cells = assay: Cell death assay (Annexin V / propidium iodide); type: cell-based; conditions: for sensitization to BV6-induced cell death: in combination with BV6
Experimental: (§3) Cell death assay. Cells (2×10^5 cells/well) were seeded in a 6-well plate and treated with the indicated drugs for 6 hours. Cells were dissociated using Accutase (Thermo Fisher; Cat. #00-4555-56) in order to avoid accidental exposure of phosphatidylserine on the outer plasma membrane. Cell death was evaluated with Dead Cell Apoptosis Kit with Annexin V Alexa Fluor™ 488 & Propidium Iodide (Thermo Fisher; Cat. #V13241) according to manufacturer's protocol. Data was acquired by BD LSRII flow cytometer system using BD FACSDiva software. Data was analyzed by FlowJo (BD).

MOLM13 cells [5] = assay: Cell viability, leukemia cells; type: cell-based; conditions: MOLM13, 72 hr, Cell titer Glo
Experimental: as §1, §2

MV-411 cells = assay: Cell viability, leukemia cells; type: cell-based; conditions: MV-411, 72 hr, Cell titer Glo
Experimental: as §1, §2

THP-1 cells = assay: Cell death with BV6 in THP-1 cells; type: cell-based
Experimental: as §3

H508 cells = assay: Cell viability, colon cancer cells; type: cell-based; conditions: H508, 72 hr, Cell titer Glo
Experimental: as §1, §2

HT29 cells = assay: Cell viability, colon cancer cells; type: cell-based; conditions: HT29, 72 hr, Cell titer Glo
Experimental: as §1, §2

U2OS cells = assay: DNA damage, yH2AX immunofluorescence in U2OS; type: cell-based
Experimental: Immunofluorescent analysis and microscopy. Cells were treated with MASM7, MFI8 and or Q-VD-OPh at ˜70% confluence for 6 h. After treatments, cells were washed with PBS and fixed with 4% PFA for 15 min. Then cells were permeabilized with 0.1% Triton X-100 in PBS for 10 min. Cells were blocked with 5% BSA in PBS-T and incubated overnight with primary antibodies as indicated; yH2AX (Sigma; 05-636, 1:100 dilution). After incubation with primary antibodies, cells were washed with PBS and incubated with the appropriate mouse secondary antibody (ThermoFisher Scientific; A-11001) in the blocking solution. After PBS washes, coverslips were dipped in water and mounted on glass slides using Vectashield containing DAPI (Vector laboratories). […] Data were analyzed with ImageJ.

## Cc1cccc(NC(C)c2cc(Cl)ccc2O)c1C (centres unmarked) [MFI8, 4-Chloro-2-(1-((2,3-dimethylphenyl)amino)ethyl)phenol]
A375 cells
  viability: concentration responsively reduces viability
SKML-30 cells
  viability: concentration responsively reduces viability
MEFs [1]
  metabolites of the TCA cycle: markedly reduced several metabolites such as malate, oxaloacetate, and α-ketoglutarate
MOLM13 cells [2]
  caspase 3/7 activation in response to AMG-176: sensitizes cells to caspase activation
MEFs [3]
  cytochrome c release to the cytosol: cytochrome c was released to the cytosol, albeit at modest levels
MEFs [4]; MFN1/MFN2 DKO MEFs
  DNA damage (yH2AX foci): not in MFN1/MFN2 DKO MEFs
MEFs [4]; WT MEFs
  DNA damage (yH2AX foci): increased yH2AX foci in WT MEFs
cells; compound alone, upon caspase 3/7 activation
  percentage of dead cells: did not increase the percentage of dead cells
cells
  sensitization to BV6-induced cell death: potentiated the capacity of BV6 to induce cell death
cells; deletion of MFN1/2 and APAF
  sensitization to BV6-induced cell death: abolished the capacity of MFI8 to sensitize cells to BV6 treatment
MOLM13 cells [5]
  viability: concentration responsively reduces viability
MV-411 cells
  viability: concentration responsively reduces viability
THP-1 cells
  cell death in combination with BV6: synergistically induce cell death
H508 cells
  viability: concentration responsively reduces viability
HT29 cells
  viability: concentration responsively reduces viability
U2OS cells; U2OS cells
  DNA damage (yH2AX): induced DNA damage in U2OS cells
U2OS cells; U2OS, co-treatment with pan-caspase inhibitor Q-VD-OPh
  DNA damage (yH2AX): abolished the capacity of the latter to induce DNA damage
